Where two headings read alike, the source gives them in different places.
Assays:
[1] = system: Torpedo marmorata nicotinic acetylcholine receptor (nAChR); assay: nAChR/microsphere-based inhibition assay; format: binding; conditions: for Interference with the Luminex nAChR-based assay: restated in discussion, concentration not given there; for IC50 expressed as level in shellfish meat: assuming 100% recoveries
nAChR [2] = conditions: cited from earlier work
[3] = system: Lymnaea stagnalis acetylcholine binding protein (Ls-AChBP); assay: Ls-AChBP/microsphere-based inhibition assay; conditions: buffer
mice [4] = conditions: fed to fasted mice, from reported LD50
mice [5] = conditions: cited from earlier work; for LD50: fed to fasted mice; for oral LD50: mice
[6] = molecular target: Torpedo marmorata nicotinic acetylcholine receptor (Torpedo marmorata) (UniProt P02711); assay: […]
[7] = format: physicochemical; conditions: for % Recovery (toxin detected after storage versus freshly analyzed samples): 7 ng/ml, 4 weeks
nAChR [8] = conditions: chemiluminescence assay; cited from earlier work
nAChR [9] = conditions: fluorescence polarization assay; cited from earlier work
[10] = molecular target: Acetylcholine binding protein from Lymnaea stagnalis (Lymnaea stagnalis, UniProt P58154 20-229); assay: […]
Acetylcholine binding protein from Lymnaea stagnalis, sequence (P58154 20-229): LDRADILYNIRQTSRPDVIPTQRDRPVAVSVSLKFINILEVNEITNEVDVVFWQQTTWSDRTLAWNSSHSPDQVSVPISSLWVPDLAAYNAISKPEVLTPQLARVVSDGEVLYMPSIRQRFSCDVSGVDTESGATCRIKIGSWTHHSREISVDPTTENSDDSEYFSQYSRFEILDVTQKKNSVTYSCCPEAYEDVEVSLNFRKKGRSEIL

Torpedo marmorata nicotinic acetylcholine receptor (Torpedo marmorata), sequence (P02711 whole entry, looked up): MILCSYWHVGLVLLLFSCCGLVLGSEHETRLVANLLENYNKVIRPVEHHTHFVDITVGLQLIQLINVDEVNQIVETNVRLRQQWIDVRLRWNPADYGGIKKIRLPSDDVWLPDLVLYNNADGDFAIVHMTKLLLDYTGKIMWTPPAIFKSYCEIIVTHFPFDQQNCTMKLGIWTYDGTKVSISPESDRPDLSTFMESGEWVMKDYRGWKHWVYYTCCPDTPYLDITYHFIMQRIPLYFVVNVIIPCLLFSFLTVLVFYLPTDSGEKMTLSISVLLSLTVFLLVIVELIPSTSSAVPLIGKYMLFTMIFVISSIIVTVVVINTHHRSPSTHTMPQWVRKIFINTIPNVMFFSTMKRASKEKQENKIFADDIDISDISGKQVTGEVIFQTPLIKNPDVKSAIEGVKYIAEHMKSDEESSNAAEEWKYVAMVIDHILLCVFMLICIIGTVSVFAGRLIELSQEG

C=CCC(=C)/C=C/[C@@](C)(O)[C@H]1O[C@@H]2C[C@@H]3O[C@@H]4C[C@@H]5O[C@@H]6C[C@@H]7O[C@@H]8C[C@@H]9O[C@@H]%10C[C@@H]%11O[C@](C)(CCOS(=O)(=O)O)[C@@H](OS(=O)(=O)O)C[C@H]%11O[C@H]%10C[C@H]9O[C@H]8CC[C@@]7(C)O[C@@]6(C)CC[C@H](C)[C@H]5O[C@H]4C[C@@]3(C)O[C@H]2CC1=C [yessotoxin]
Interference with the nAChR-based assay (maximum and minimum binding signals) ([1]; 5 μM): no effects on maximum and minimum binding signals
Interference with the Luminex nAChR-based assay [1]: do not interfere
Interference with nAChR based assays (nAChR [2]; previous studies): not shown any interferences

azaspiracid-2
Interference with nAChR based assays (nAChR [2]; previous studies): not shown any interferences

CC1=C[C@@H](C2=C(C)[C@@H]3/C=C(\C)[C@@H](O)CC[C@@H]4C[C@@H](C)[C@@H](O4)/C(C)=C/CCC4=NCCC[C@@]43CC2)OC1=O [gymnodimine, Gymnodimine]
Assay efficiency for gymnodimine relative to 13-desmethyl spirolide C [3]: 14 fold
Times less toxic than 13-desmethyl spirolide C (mice [4]): > 15 times
LD50 (mice [5]): > 7.5 mg/kg

C=C1[C@@H](O)[C@@H]2O[C@]3(CC[C@H](/C=C/[C@@H](C)[C@@H]4CC(C)=C[C@@]5(O[C@H](C[C@@](C)(O)C(=O)O)CC[C@H]5O)O4)O3)CC[C@H]2O[C@@H]1[C@@H](O)C[C@H](C)[C@H]1O[C@@]2(CCCCO2)CC[C@H]1C [okadaic acid]
Interference with the nAChR-based assay (maximum and minimum binding signals) ([1]; 10 μM): no effects on maximum and minimum binding signals
Interference with the Luminex nAChR-based assay [1]: do not interfere
Interference with nAChR based assays (nAChR [2]; previous studies): not shown any interferences

brevetoxin-2
Interference with nAChR based assays (nAChR [2]): not shown any interferences

C/C(=C/C=C/[C@@H](C)C(=O)O)[C@H]1CN[C@H](C(=O)O)[C@H]1CC(=O)O [domoic acid]
Interference with the nAChR-based assay (maximum and minimum binding signals) ([1]; 10 μM): no effects on maximum and minimum binding signals
Interference with the Luminex nAChR-based assay [1]: do not interfere

azaspirazid-1
Interference with the nAChR-based assay (maximum and minimum binding signals) ([1]; 1 μM): no effects on maximum and minimum binding signals
Interference with the Luminex nAChR-based assay [1]: do not interfere

20-methyl spirolide G
Cross-reactivity (IC50 of 13-desmethyl spirolide C / IC50 of cyclic imine x 100) ([1]; nAChR assay, buffer): 95%
oral LD50 (mice [5]; administered with food): 500 Wg/kg
oral LD50 (mice [5]; by gavage): 160 Wg/kg

Biotin-α-bungarotoxin (peptide)
maximum binding signal to background ratio [6]: 500

C=C1CCCC2=NCC(C)C(C)CC23CCC(C2C=C(C)C(=O)O2)=C(C)C3/C=C(/C)C(O)CC2CCC3(CCC4(OC(CCC4(C)O)C1)O3)O2 (centres unmarked) [13-desmethyl spirolide C]
IC50 [1]: 10 nM
IC20 ([1]; buffer): 0.2 ± 0.04 ng/mL
IC50 ([1]; buffer): 7.4 ± 0.7 ng/mL
IC50 ([1]; buffer (PBS-BT/20% EtOH), n = 8): 10.8 ± 0.9 nM
IC20 ([1]; clam extract): 0.3 ± 0.01 ng/mL
IC50 ([1]; clam extract): 10.3 ± 1.4 ng/mL
IC80 ([1]; clam extract): 160 ± 6 ng/mL
IC50 expressed as level in shellfish meat ([1]; clam extract): 411.6 ± 54.8 Wg/kg
IC50 ([1]; clam extract, n = 2): 14.9 ± 1.9 nM
IC20 ([1]; mussel extract): 0.4 ± 0.1 ng/mL
IC50 ([1]; mussel extract): 11.3 ± 1.1 ng/mL
IC80 ([1]; mussel extract): 160 ± 8 ng/mL
IC50 expressed as level in shellfish meat ([1]; mussel extract): 451.3 ± 42.4 Wg/kg
IC50 ([1]; mussel extract, n = 6): 16.3 ± 1.5 nM
Detection efficiency of 13-desmethyl spirolide C relative to gymnodimine ([1]; nAChR assay, buffer): 24 times
IC20 ([1]; read-out: IC20 (nM), lower end of dynamic range, buffer): 0.4 ± 0.07 nM
IC20 ([1]; read-out: IC20 (nM), lower end of dynamic range, clam extract): 0.5 ± 0.01 nM
IC20 ([1]; read-out: IC20 (nM), lower end of dynamic range, mussel extract): 0.6 ± 0.2 nM
IC20 ([1]; read-out: IC20 (nM), lower end of dynamic range, scallop extract): 0.5 ± 0.2 nM
IC80 ([1]; read-out: IC80 (nM), upper end of dynamic range, clam extract): 231 ± 23 nM
IC80 ([1]; read-out: IC80 (nM), upper end of dynamic range, mussel extract): 232 ± 11 nM
IC80 ([1]; read-out: IC80 (nM), upper end of dynamic range, scallop extract): 201 ± 9 nM
IC20 ([1]; scallop extract): 0.4 ± 0.2 ng/mL
IC50 ([1]; scallop extract): 8.6 ± 1.5 ng/mL
IC80 ([1]; scallop extract): 139 ± 6.5 ng/mL
IC50 expressed as level in shellfish meat ([1]; scallop extract): 344.2 ± 60.3 Wg/kg
IC50 ([1]; scallop extract, n = 5): 12.4 ± 2.2 nM
% Recovery (toxin detected after storage versus freshly analyzed samples) ([7]; buffer (PBS-BT/20% EtOH), 4–8 °C): 109 ± 6%
% Recovery (toxin detected after storage versus freshly analyzed samples) ([7]; buffer (PBS-BT/20% EtOH), −20 °C): 98.1 ± 6.3%
% Recovery (toxin detected after storage versus freshly analyzed samples) ([7]; mussel extract, 4–8 °C): 135 ± 23%
% Recovery (toxin detected after storage versus freshly analyzed samples) ([7]; mussel extract, −20 °C): 121 ± 16%
% Recovery (toxin detected after storage versus freshly analyzed samples) ([7]; scallop extract, 4–8 °C): 92.0 ± 9.2%
% Recovery (toxin detected after storage versus freshly analyzed samples) ([7]; scallop extract, −20 °C): 85.5 ± 5.5%
% of toxin recovered after storage in mussel homogenate ([7]; spiked mussel homogenate, two weeks, −20 °C): 105.7 ± 5.3%
IC50 (nAChR [8]): 35 nM
IC50 (nAChR [9]): 100 nM
LD50 (mice [5]): 0.5 mg/kg
oral LD50 (mice [5]; administered with food): 500 Wg/kg
oral LD50 (mice [5]; by gavage): 160 Wg/kg

B1: Biotin-α-bungarotoxin (peptide)
chain: IVCHTTATSPISAVTCPPGENLCYRKMWCDAFCSSRGKVVELGCAATCPSKKPYEEVTCCSTDKCNPHPKQRPG
maximum binding signal to background ratio [10]: ~2000

Source: paper PMC3597463 (Analytical chemistry, 2013)
